Reference: PMC10504495 (iScience, 2023)

Legend:
[1] = system: SIRT7; test: fluorogenic probe delactylation assay; format: biochemical, human; details: 10 μM probe, 100 μM NAD+, HEPES pH 8.0, 37°C, 2 h
Method: (§1) To determine the fluorescence change after incubating p-H4K16laNBD with various enzymes (HDAC3, SIRT1-3, SIRT5-7), we incubated 10 μM p-H4K16laNBD with 0.2 μM SIRT1-7 (except SIRT4) in 20 mM HEPES buffer (pH = 8.0) containing 100 μM NAD^+ for 2 h. For positive control, we used 0.1 μM HDAC3. The fluorescence was measured using an excitation wavelength of 480 nm, and the emitted fluorescence signal at 550 nm was measured using a microplate reader (Molecular Devices SpectraMax ID5 Microplate Reader).

[2] = system: SIRT5; test: fluorogenic probe delactylation assay; format: biochemical, human; details: 10 μM probe, 100 μM NAD+, HEPES pH 8.0, 37°C, 2 h
Method: as §1

[3] = system: SIRT6; test: fluorogenic probe delactylation assay; format: biochemical, human; details: 10 μM probe, 100 μM NAD+, HEPES pH 8.0, 37°C, 2 h
Method: as §1

[4] = absorption/fluorescence spectra of the probe; format: physicochemical; details: 10 μM probe
Method: (§2) To determine the absorption spectra, 10 μM p-H4K16laNBD was incubated with or without 0.2 μM SIRT3 and 100 μM NAD^+ for 2 h in 20 mM HEPES buffer (pH = 8.0). For the fluorescence assay, the fluorescence was detected using an excitation wavelength of 480 nm, and the emitted fluorescence signal was measured over the range of 520–740 nm using a microplate reader (Molecular Devices SpectraMax ID5 Microplate Reader).

[5] = biological target: T1, SIRT3 (Homo sapiens, UniProt Q9NTG7); test: fluorogenic probe delactylation assay; format: biochemical
T1 construct: SIRT3 (118–399 aa); 6xHis with TEV site (pET-N-6xHis-TEV vector) (N, cleaved yes); made in house; host or cells: E. coli BL21-CodonPlus (DE3)-RIL
T1 sequence (Q9NTG7 118-399): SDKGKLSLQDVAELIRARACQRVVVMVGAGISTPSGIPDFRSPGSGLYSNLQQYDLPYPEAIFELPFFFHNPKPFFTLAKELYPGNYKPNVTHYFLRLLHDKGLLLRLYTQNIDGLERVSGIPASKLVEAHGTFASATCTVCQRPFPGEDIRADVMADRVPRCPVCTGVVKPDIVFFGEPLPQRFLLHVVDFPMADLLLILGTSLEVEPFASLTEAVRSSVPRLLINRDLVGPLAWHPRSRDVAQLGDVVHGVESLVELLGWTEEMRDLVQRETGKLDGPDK
Method: as §2
(§3) For the HPLC analysis, we incubated 10 μM p-H4K16laNBD with 0.2 μM SIRT3 and 100 μM NAD^+ in 20 mM HEPES buffer (pH = 8.0) for 2 h. We also performed time-dependent fluorescence measurements by incubating 10 μM p-H4K16laNBD with 0.2 μM SIRT3 and 100 μM NAD^+ or 0.1 μM HDAC3 in 20 mM HEPES buffer (pH = 8.0) for different time intervals. The fluorescence was measured using an excitation wavelength of 480 nm, and the emitted fluorescence signal at 550 nm was measured using a microplate reader (Molecular Devices SpectraMax ID5 Microplate Reader).
as §1

[6] = biological target: T2, HDAC3 (Homo sapiens, UniProt O15379); test: fluorogenic probe delactylation assay; format: biochemical; details: 10 μM probe
T2 construct: purchased Abcam ab42631
Method: as §2, §3, §1

[7] = biological target: T3, SIRT2 (Homo sapiens, UniProt Q8IXJ6); test: fluorogenic probe delactylation assay; format: biochemical; details: 10 μM probe, 100 μM NAD+, HEPES pH 8.0, 37°C, 2 h
T3 construct: SIRT2 (50–356 aa); SUMO (pET-28a-sumo vector) (cleaved yes); made in house; host or cells: E. coli BL21-CodonPlus (DE3)-RIL
T3 sequence (Q8IXJ6 50-356): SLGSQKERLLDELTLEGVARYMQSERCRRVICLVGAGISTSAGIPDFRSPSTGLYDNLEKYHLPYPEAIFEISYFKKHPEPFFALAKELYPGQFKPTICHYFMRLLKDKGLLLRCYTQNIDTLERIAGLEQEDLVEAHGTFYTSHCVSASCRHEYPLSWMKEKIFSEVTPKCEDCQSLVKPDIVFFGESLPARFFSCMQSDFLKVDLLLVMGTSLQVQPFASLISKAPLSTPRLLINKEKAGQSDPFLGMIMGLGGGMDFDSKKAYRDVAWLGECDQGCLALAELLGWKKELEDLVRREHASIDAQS
Method: as §1

[8] = biological target: T4, SIRT1 (Homo sapiens, UniProt Q96EB6); test: fluorogenic probe delactylation assay; format: biochemical; details: 10 μM probe, 100 μM NAD+, HEPES pH 8.0, 37°C, 2 h
T4 construct: the human SIRT1 core region (234–505 aa); SUMO (pET-28a-sumo vector) (cleaved yes); made in house; host or cells: E. coli BL21-CodonPlus (DE3)-RIL
T4 sequence (Q96EB6 234-505): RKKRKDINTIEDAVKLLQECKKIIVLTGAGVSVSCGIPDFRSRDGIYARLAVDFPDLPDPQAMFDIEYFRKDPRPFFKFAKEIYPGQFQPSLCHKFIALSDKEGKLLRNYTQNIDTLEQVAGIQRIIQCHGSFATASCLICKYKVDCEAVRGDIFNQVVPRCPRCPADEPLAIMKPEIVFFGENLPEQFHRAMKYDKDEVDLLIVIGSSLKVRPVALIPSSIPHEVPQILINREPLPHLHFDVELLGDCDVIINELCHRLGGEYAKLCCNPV
Method: as §1

[9] = system: pan-Kla; details: cells treated with nicotinamide; cited from earlier work
Text: (§4) Histone deacetylases (HDACs), including HDACs and Sirtuin family proteins, are well studied PTM erasers that regulate gene transcription. Recently, Moreno-Yruela et al. discovered that class I HDACs (HDAC1-3), especially HDAC3, are effective lactylation erasers.[5] […] The authors also treated cells with HDAC inhibitors (butyrate, trichostatin A, and apicidin) and a Sirtuin pan-inhibitor (nicotinamide) to compare the intracellular delactylation activities between HDACs and Sirtu ...

[10] = system: pan-Kac; details: cells treated with nicotinamide; cited from earlier work
Text: as §4

T2 sequence (O15379 whole entry): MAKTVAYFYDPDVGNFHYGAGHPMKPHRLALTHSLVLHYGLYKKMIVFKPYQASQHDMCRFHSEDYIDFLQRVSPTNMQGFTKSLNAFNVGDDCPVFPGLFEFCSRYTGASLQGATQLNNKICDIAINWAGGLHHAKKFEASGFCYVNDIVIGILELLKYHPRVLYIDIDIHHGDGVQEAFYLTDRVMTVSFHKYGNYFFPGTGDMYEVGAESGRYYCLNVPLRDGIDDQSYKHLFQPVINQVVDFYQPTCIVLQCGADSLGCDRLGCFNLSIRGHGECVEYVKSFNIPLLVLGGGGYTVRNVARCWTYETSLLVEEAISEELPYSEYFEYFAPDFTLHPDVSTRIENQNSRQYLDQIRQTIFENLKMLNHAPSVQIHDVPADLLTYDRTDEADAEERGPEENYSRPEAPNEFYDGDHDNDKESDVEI
T2 sequence (Q9Y618 395-489 partner limits assumed): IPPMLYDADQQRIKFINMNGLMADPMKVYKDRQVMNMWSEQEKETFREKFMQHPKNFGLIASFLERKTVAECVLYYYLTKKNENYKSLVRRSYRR

Molecule	fluorescence response, SIRT7 [1]	fluorescence response, SIRT5 [2]	fluorescence response, SIRT6 [3]	new absorption peak after enzymatic reaction ([4]; 0.2 μM SIRT3, 100 μM NAD+, 2 h, HEPES pH 8.0)	absorption peak ([4]; 20 mM HEPES pH 8.0, without enzyme)	fluorescence emission peak after incubation with SIRT3 and NAD+ ([4]; λex 480 nm, 0.2 μM SIRT3, 100 μM NAD+)	first-order rate constant k, SIRT3 ([5]; 10 μM probe, 0.2 μM SIRT3, 100 μM NAD+, 20 mM HEPES pH 8.0, λex 480, λem 550 nm)	fluorescence response, SIRT3 ([5]; 10 μM probe, SIRT3, 100 μM NAD+, HEPES pH 8.0, 37°C, 2 h)	fluorescence with sole NAD+ or denatured SIRT3 ([5]; control groups)	first-order rate constant k, HDAC3 ([6]; 0.1 μM HDAC3, 20 mM HEPES pH 8.0, λex 480, λem 550 nm)	fluorescence response, HDAC3 ([6]; 0.1 μM HDAC3, HEPES pH 8.0, 37°C, 2 h)	fluorescence response, SIRT2 [7]	fluorescence response, SIRT1 [8]	pan-Kla level change [9]	pan-Kac level change [10]
GGAK(lac)RHRPra-NH2 [p-H4K16laNBD, H4K16la based fluorogenic probe with O-NBD (nitrobenzofurazan) group conjugated to the C-terminus]	minimal changes in fluorescence	minimal changes in fluorescence	minimal changes in fluorescence	482 nm	around 370 nm	550 nm	0.0059 min⁻¹	fluoresced at 550 nm	will not affect the fluorescence generating	0.0102 min⁻¹	fluoresced at 550 nm	minimal changes in fluorescence	minimal changes in fluorescence	–	–
NC(=O)c1cccnc1 [nicotinamide]	–	–	–	–	–	–	–	–	–	–	–	–	–	unable to induce Sirtuin-regulated pan-Kla increasement	unchanged
